From PMC4813125, “Identification of Human UDP-Glucuronosyltransferase 1A4 as the Major Isozyme Responsible for the Glucuronidation of 20(S)-Protopanaxadiol in Human Liver Microsomes” (International Journal of Molecular Sciences, 2016)

Tests used:
[1] = test system: PPD glucuronidation in pooled HLMs; assay: Chemical inhibition of PPD glucuronidation in pooled HLMs; type: in vitro ADME, human; details: PPD 50 μM; for inhibition of PPD glucuronidation (in words): inhibitor 5, 50, and 200 μM
Experimental: Fluconazole, androsterone, estradiol, and hecogenin [25, 34] were used to inhibit their potential inhibitory effects on PPD glucuronidation in pooled HLMs. A set of concentrations (5, 50, and 200 μM) was used for all four inhibitors. The concentration of PPD was set at 50 μM. The reaction time and protein concentration were set at 60 min and 0.5 mg/mL, respectively. All other incubation conditions were the same as those for Glucuronidation of PPD in pooled HLMs described above. The concentration of organic solvent was 1% of the total incubation volume. An experimental group without inhibitors but with solvents was used as the control, in which the activities of PPD glucuronidation were designated as 100%. The activities of PPD glucuronidation in the inhibited samples were compared with the control to evaluate the remaining enzyme activity. For determination of IC50 (representing the concentration that inhibits 50% of the control activity) of hecogenin, experiments with a set of concentrations of hecogenin (1–400 μM) in pooled HLMs were conducted.

[2] = test system: pooled human liver microsomes (HLMs); assay: Kinetics of PPD glucuronidation by pooled human liver microsomes; type: in vitro ADME; details: formation of PPDG
Experimental: (§1) In vitro PPD glucuronidation was in an incubation volume of 100 μL. Incubation conditions were initially optimized for the linear product formation with respect to protein concentration (0.2–1 mg/mL), and incubation time (15–120 min). The stock solution of PPD was prepared in dimethyl sulfoxide (DMSO), and the final concentration of DMSO in the incubations was 1% (v/v). Briefly, the incubation mixture contained HLMs or RLMs (0.5 mg of protein/mL), UDPGA (2 mM), MgCl2 (4 mM), alamethicin (25 μg/mg protein), PPD (10–500 μM), and Tris–HCl buffer (50 mM, pH 7.4). The mixture was incubated for 5 min at 37 °C, and then the reaction was started by the addition of UDPGA and incubated in a shaking water bath for 60 min. The reaction was terminated by addition of 200 μL of ice-cold acetonitrile containing GRg1 (internal standard (IS), 0.5 μg/mL) and then centrifuged at 15,000× g for 10 min at 4 °C. The supernatant was evaporated to dryness under nitrogen gas at room temperature, and the residue was reconstituted with 200 µL of 20% acetonitrile. After centrifugation at 15,000× g for 10 min at 4 °C, 5 μL of the supernatants was subjected to analysis. Incubations without PPD and UDPGA were served as blank and negative controls, respectively.
(§2) Quantitative analysis was conducted on an Agilent 1290 infinity system (Agilent Technologies, Santa Clara, CA, USA) coupled with an MS/MS detector (6410 B Triple Quad LC/MS; Agilent Technologies) in negative ion mode. The chromatographic separations were performed on an ACQUITY UPLC HSS T3 column (100 mm × 2.1 mm i. d. (inner diameter), 1.8 μm) thermostated at 45 °C. The mobile phase consisted of A (5 mM ammonium acetate in water) and B (acetonitrile) at a flow rate of 0.4 mL/min. The gradient elution program was set as follow: 0–2 min 20%–50% B, 2–4 min 50%–60% B, 4–5 min 60% B and finally, reconditioning the column with 20% B for 1 min. Optimized ion source parameters were set as follows: gas temperature 325 °C; gas flow 10 L/min; nebulizer 35 psi; capillary voltage 3500 V; fragmentor voltage 265 V for PPDG and 215 V for IS; cell accelerator voltage 0 V; dwell time 200 ms. Data were acquired in multiple reaction monitor (MRM) mode for the following transitions: m/z 635.4 to m/z 375.1 for PPDG and m/z 799.5 to m/z 637.6 for IS, with the collision energy being set at 50 and 26 V, respectively.
(§3) All results were obtained from three replicates in different microsomal incubations, and all the data were expressed as mean ± SD. To estimate the kinetic parameters, data were transformed and Eadie–Hofstee curves were plotted, which help to identify kinetic models. […] In addition, CLmax was calculated according to the Equation (2). […]

[3] = set-up: method as in PMID 23494798; details: previous studies ref 13; cited from earlier work
human recombinant UGT1A4 [4] = biological target: T1, human recombinant UGT1A4 (Homo sapiens, UniProt P22310); assay: PPD glucuronidation with recombinant human UGT1A4; type: in vitro ADME; set-up: purchased BD Gentest; details: UGT1A4 0.25 mg protein/mL
T1 sequence (P22310 29-534): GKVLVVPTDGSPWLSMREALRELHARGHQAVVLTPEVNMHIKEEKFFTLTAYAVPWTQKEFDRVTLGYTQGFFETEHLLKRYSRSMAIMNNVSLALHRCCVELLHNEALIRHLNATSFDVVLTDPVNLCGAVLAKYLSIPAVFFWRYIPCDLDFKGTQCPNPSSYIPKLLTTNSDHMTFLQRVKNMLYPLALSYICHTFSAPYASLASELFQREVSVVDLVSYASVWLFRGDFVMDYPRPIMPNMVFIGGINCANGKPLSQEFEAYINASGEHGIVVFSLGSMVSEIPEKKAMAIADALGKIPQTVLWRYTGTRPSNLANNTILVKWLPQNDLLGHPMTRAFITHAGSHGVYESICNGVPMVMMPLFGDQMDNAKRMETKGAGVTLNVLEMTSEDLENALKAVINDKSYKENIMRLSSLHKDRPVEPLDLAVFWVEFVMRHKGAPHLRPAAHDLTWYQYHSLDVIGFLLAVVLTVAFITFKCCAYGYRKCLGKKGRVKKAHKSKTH
Experimental: (§4) PPD glucuronidation was measured in reaction mixtures containing human recombinant UGT1A1, 1A3, 1A4, 1A6, 1A7, 1A8, 1A9, 1A10, 2B4, 2B7, 2B15, and 2B17. Three substrate concentrations (10, 50, and 200 μM) were used in this study. The incubation conditions were the same as those for Glucuronidation of PPD in pooled HLMs described above except for the protein concentration (0.25 mg/mL).

[5] = test system: pooled rat liver microsomes (RLMs); assay: Kinetics of PPD glucuronidation by pooled rat liver microsomes; type: in vitro ADME; details: formation of PPDG
Experimental: as §1, §2, §3

human recombinant UGT1A3 = biological target: T2, human recombinant UGT1A3 (Homo sapiens, UniProt P35503); assay: PPD glucuronidation with recombinant human UGT1A3; type: in vitro ADME; details: UGT1A3 0.25 mg protein/mL
T2 construct: purchased BD Gentest
T2 sequence (P35503 29-534): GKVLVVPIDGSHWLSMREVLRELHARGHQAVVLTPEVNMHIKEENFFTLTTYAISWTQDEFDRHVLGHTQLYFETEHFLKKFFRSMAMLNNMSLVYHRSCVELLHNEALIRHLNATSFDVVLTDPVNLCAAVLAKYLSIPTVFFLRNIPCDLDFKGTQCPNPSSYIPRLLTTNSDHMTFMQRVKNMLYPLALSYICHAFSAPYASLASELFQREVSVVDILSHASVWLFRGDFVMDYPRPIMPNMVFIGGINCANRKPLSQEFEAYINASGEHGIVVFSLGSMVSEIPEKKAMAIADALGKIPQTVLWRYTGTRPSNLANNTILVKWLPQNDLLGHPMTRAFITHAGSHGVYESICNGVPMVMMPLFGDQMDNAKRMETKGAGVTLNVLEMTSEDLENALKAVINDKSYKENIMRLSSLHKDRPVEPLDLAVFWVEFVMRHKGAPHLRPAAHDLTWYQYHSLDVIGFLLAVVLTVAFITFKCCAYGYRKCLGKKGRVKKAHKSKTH
Experimental: as §4

human recombinant UGT1A4 [6] = biological target: T1, human recombinant UGT1A4; assay: Kinetics of PPD glucuronidation by recombinant UGT1A4; type: in vitro ADME; details: formation of PPDG
Experimental: (§5) A kinetic study for PPD glucuronidation by human recombinant UGT 1A4 was also conducted by incubating PPD with human recombinant UGT 1A4 at protein concentration of 0.25 mg/mL for 1 h. All other incubation conditions were identical to those of glucuronidation of PPD in pooled HLMs.
(§6) All results were obtained from three replicates in different microsomal incubations, and all the data were expressed as mean ± SD. To estimate the kinetic parameters, data were transformed and Eadie–Hofstee curves were plotted, which help to identify kinetic models. Then kinetic parameters were obtained by fitting velocity data to the sigmoidal kinetic (Hill) model (Equation (1)) using Graph Pad Prism 5.0 software (San Diego, CA, USA). In addition, CLmax was calculated according to the Equation (2). (1) V=Vmax × [S]^n/S50n + [S]^n (2) CLmax = Vmax/S50 × n−1/n(n−1)^1/n
(§7) V is reaction velocity, Vmax is the maximum reaction velocity, [S] is the substrate concentration, S50 is the substrate concentration at 0.5 Vmax (analogous to Km in the Michaelis–Menten equation), n is the Hill coefficient (which reflects the degree of sigmoidicity of the velocity versus substrate-concentration relationship), CLmax is the maximum clearance, which provides an estimate of the highest clearance attained.

[7] = test system: human recombinant UGT1A1, 1A6, 1A7, 1A8, 1A9, 1A10, 2B4, 2B7, 2B15, and 2B17; assay: PPD glucuronidation with other recombinant human UGT isozymes; type: in vitro ADME; details: PPD 10, 50, and 200 μM, 0.25 mg protein/mL
Experimental: as §4

[8] = substrate: CC(C)=CCC[C@](C)(O)C1CC[C@]2(C)[C@@H]1[C@H](O)CC1[C@@]3(C)CC[C@H](O)C(C)(C)C3CC[C@]12C; assay: Kinetics of PPD glucuronidation by recombinant UGT1A4; type: in vitro ADME, human; details: other: formation of PPDG, recombinant UGT1A4, Hill kinetics, 10–500 μM PPD
Experimental: as §5, §6, §7

[9] = HLMs, Hill kinetics, 10–500 μM PPD
[10] = RLMs, Hill kinetics, 10–500 μM PPD

OC(Cn1cncn1)(Cn1cncn1)c1ccc(F)cc1F [Fluconazole, fluconazole]
inhibition of PPD glucuronidation (in words) ([1]; pooled HLMs 0.5 mg/mL): no inhibition

CC(C)=CCC[C@](C)(O)[C@H]1CC[C@]2(C)[C@@H]1[C@H](O)C[C@@H]1[C@@]3(C)CC[C@H](O)C(C)(C)[C@@H]3CC[C@]12C [PPD, 20(S)-protopanaxadiol]
Vmax ([2]; HLMs 0.5 mg protein/mL, Hill kinetics, 10–500 μM PPD, mean ± SD): 0.32 ± 0.01 nmol/min/mg Protein | S50 [2, 9]: 42.80 ± 0.73 µM | n (Hill coefficient) [2, 9]: 2.12 ± 0.24 | CLmax ([2]; HLMs, calculated by Equation (2)): 3.70 ± 0.01 μL/min/mg Protein | oral bioavailability [3]: ~30% | catalytic activity towards PPD glucuronidation (human recombinant UGT1A4 [4]; PPD 10 μM): 0.06 ± 0.01 nmol/min/mg protein | catalytic activity towards PPD glucuronidation (human recombinant UGT1A4 [4]; PPD 50 μM): 0.18 ± 0.01 nmol/min/mg protein | catalytic activity towards PPD glucuronidation (human recombinant UGT1A4 [4]; PPD 200 μM): 0.35 ± 0.05 nmol/min/mg protein | Vmax ([5]; RLMs 0.5 mg protein/mL, Hill kinetics, 10–500 μM PPD, mean ± SD): 0.30 ± 0.01 nmol/min/mg Protein | S50 [5, 10]: 20.68 ± 1.39 µM | n (Hill coefficient) [5, 10]: 2.50 ± 0.48 | CLmax ([5]; RLMs, calculated by Equation (2)): 7.36 ± 0.27 μL/min/mg Protein | catalytic activity towards PPD glucuronidation (human recombinant UGT1A3; PPD 10 μM): 0.02 ± 0.004 nmol/min/mg protein | catalytic activity towards PPD glucuronidation (human recombinant UGT1A3; PPD 50 μM): 0.04 ± 0.004 nmol/min/mg protein | catalytic activity towards PPD glucuronidation (human recombinant UGT1A3; PPD 200 μM): 0.04 ± 0.003 nmol/min/mg protein | Vmax (human recombinant UGT1A4 [6]; recombinant UGT1A4 0.25 mg/mL, Hill kinetics, 10–500 μM PPD, mean ± SD): 0.31 ± 0.01 nmol/min/mg Protein | n (Hill coefficient) (human recombinant UGT1A4 [6]; recombinant UGT1A4, Hill kinetics, 10–500 μM PPD): 2.34 ± 0.23 | CLmax (human recombinant UGT1A4 [6]; recombinant UGT1A4, calculated by Equation (2)): 8.39 ± 0.79 μL/min/mg Protein | PPD glucuronidation by other UGT isozymes (in words) [7]: did not participate in this metabolism

C[C@]12CC[C@@H]3c4ccc(O)cc4CC[C@H]3[C@@H]1CC[C@@H]2O [estradiol]
inhibition of PPD glucuronidation (in words) ([1]; pooled HLMs 0.5 mg/mL): weak inhibition

C[C@]12CC[C@@H](O)C[C@@H]1CC[C@@H]1[C@@H]2CC[C@]2(C)C(=O)CC[C@@H]12 [androsterone]
inhibition of PPD glucuronidation (in words) ([1]; pooled HLMs 0.5 mg/mL): weak inhibition

hecogenin
IC50 ([1]; pooled HLMs, hecogenin 1–400 μM): 21.3 ± 4.31 µM | inhibition of PPD glucuronidation (in words) ([1]; pooled HLMs 0.5 mg/mL): concentration-dependent inhibitory effect | inhibitory effect on PPD glucuronidation compared with the solvent control ([1]; inhibitor at 50 µM, pooled HLMs 0.5 mg/mL): more than 60%

B1: human recombinant UGT 1A4 (Homo sapiens) (protein)
chain: GKVLVVPTDGSPWLSMREALRELHARGHQAVVLTPEVNMHIKEEKFFTLTAYAVPWTQKEFDRVTLGYTQGFFETEHLLKRYSRSMAIMNNVSLALHRCCVELLHNEALIRHLNATSFDVVLTDPVNLCGAVLAKYLSIPAVFFWRYIPCDLDFKGTQCPNPSSYIPKLLTTNSDHMTFLQRVKNMLYPLALSYICHTFSAPYASLASELFQREVSVVDLVSYASVWLFRGDFVMDYPRPIMPNMVFIGGINCANGKPLSQEFEAYINASGEHGIVVFSLGSMVSEIPEKKAMAIADALGKIPQTVLWRYTGTRPSNLANNTILVKWLPQNDLLGHPMTRAFITHAGSHGVYESICNGVPMVMMPLFGDQMDNAKRMETKGAGVTLNVLEMTSEDLENALKAVINDKSYKENIMRLSSLHKDRPVEPLDLAVFWVEFVMRHKGAPHLRPAAHDLTWYQYHSLDVIGFLLAVVLTVAFITFKCCAYGYRKCLGKKGRVKKAHKSKTH
notes: purchased BD Gentest
K0.5 [8]: 18.49 ± 1.85 µM | Vmax [8]: 0.00031 µmol/min/mg
